US8084431B2, “Method for inhibiting activation of macrophages, inhibiting formation of osteoclasts, inhibiting function of osteoclasts, and/or activating osteoblasts” (China Medical University, priority 2008, dated 2011)
Like-named read-outs stand apart in the source and are kept apart here.

Columns and labels:
MC3T3-E1 cells [1] = experiment: Survival rate of osteoblast precursor cells MC3T3-E1 (MTS); format: cell-based; conditions: 3 days; for survival rate Experimental Group VI: with Vitamin C and β-glycerophosphatase; for survival rate Experimental Group V: without differentiation inducers
Procedure: MC3T3-E1 cells (American Type Culture Collection, Manassas, Va., USA) are the precursor cells of osteoblasts. A suitable differentiation inducer can be added into culture plates containing MC3T3-E1 cells to observe the later stage of the differentiation process of osteoblasts.
Besides various concentrations of kinsenoside as the above experiment, […] MC3T3-E1 cells, and the MC3T3-E1 cells were incubated for 3 days.

[2] = system: macrophages in the peritoneal cavity of ICR mice; experiment: NO release of LPS-induced peritoneal macrophages (Griess reagent); format: cell-based; conditions: LPS 1 μg/ml, 24 hours
Procedure: By means of peritoneal cavity injection, ICR mice (BioLASCO, Co., Ltd., Taiwan) were administrated with 5 wt % of thioglycollate (Becton Dickinson, Franklin Lakes, N.J.). […] Then, kinsenoside (10, 25, 50 μM) was added into the culture plates, and the macrophages were incubated for 30 minutes. Lipopolysaccharides (1 μg/ml, Sigma) were added into the plates to induce the inflammatory reaction of macrophages. 24 hours later, the supernatant was collected, and the content of nitric oxide was determined with a Griess reagent (Sigma).

MC3T3-E1 cells [3] = experiment: Mineralization of MC3T3-E1 cells (Alizarin red-S); format: cell-based; conditions: 14 days
Procedure: 50 μg/ml of Vitamin C and 10 μM of β-glycerophosphatase were added into culture plates containing MC3T3-E1 cells, and the MC3T3-E1 cells were incubated for 14 days. After 14 days, the mineralization of the MC3T3-E1 cells occurred, and led to the deposition of calcium. Alizarin red-S (Sigma) was used to measure the content of calcium (see Gregory C A, Gunn W G, Peister A, Prockop D J. 2004. An Alizarin red-based assay of mineralization by adherent cells in culture: comparison with cetylpyridinium chloride extract. Anal. Biochem. 329, 77-84).
50 μg/ml of Vitamin C and 10 μM of 0-glycerophosphatase were added into culture plates containing MC3T3-E1 cells, and various concentrations (0, 100, and 1,000 nM) of kinsenoside were added into the culture plates, respectively. The MC3T3-E1 cells were incubated for 14 days, and Alizarin red-S was used to measure the content of calcium.

myelocytes of rats = experiment: Formation of osteoclasts from rat myelocytes (RANKL + M-CSF, TRAP stain); format: cell-based, Wistar rats; conditions: for inhibition at 5 µM / inhibition at 25 µM / inhibition at 50 µM / inhibition at 100 µM: Rattus norvegicus, Osteoclast, 216 h, 9 days
Procedure: Myelocytes were first prepared. Male Wistar rats with the body weight of 250 g to 300 g were used to prepare myelocytes. Under the condition of anaesthesia, the femurs of the rats were taken, and myelocytes were washed out with a phosphate buffer solution. […] After incubation for 9 days, monocytes in the marrow differentiated into osteoclasts. The osteoclasts were stained with a TRAP (tartrate-resistant acid phosphatase) stain reagent (Sigma, Louis, Mo., USA), and the number of the osteoclasts was calculated. Besides the same RANKL and M-CSF as the control group, various concentrations (0, 5, 25, 50, and 100 μM) of kinsenoside or 10 nM of estradiol (Wako, Japan) were added into culture plates, respectively. Then, rat myelocytes were incubated for 9 days, and the situation that the myelocytes differentiated into osteoclasts was observed. The percentage of the inhibition effect of kinsenoside and estradiol on the formation of osteoclasts was calculated with the following formula, and the result is shown in Table 9. Inhibition percentage (%)=(the number of osteoclasts of the control group−the number of osteoclasts of the experimental group)/the number of osteoclasts of the control group×100% In addition to the aforesaid RANKL, kinsenoside, and/or estradiol, the inhibitor of estradiol, Fulvestrant (Sigma, Louis, Mo., USA) (1 nM), was also added into culture plates. Then, rat myelocytes were incubated for 9 days, and the situation that the myelocytes differentiated into osteoclasts was observed. The percentage of the inhibition effect of kinsenoside on the formation of osteoclasts was calculated, and the result is shown in Table 9.

[4] = system: nitric oxide synthase (iNOs), p65, and p50 (NF-κB); experiment: Western blot of iNOs, p65 and p50 in LPS-induced macrophages RAW 264.7; format: cell-based; conditions: kinsenoside 10, 50, 100 μM
Procedure: 24 hours later, the supernatant was collected, and the content of nitric oxide was determined with a Griess reagent (Sigma). After macrophages RAW 264.7 were scratched off the culture plates, proteins were extracted, and then the expression of nitric oxide synthase (iNOs), p65, and p50 (nuclear factor kappa B or NF-κB, transcription factor) was analyzed with the western blot method.

[5] = system: MMP-9 (metalloproteinases 9); experiment: RT-PCR of MMP-9 mRNA in RANKL-treated macrophages RAW 264.7; format: cell-based; conditions: kinsenoside 50 μM, RANKL 50 ng/ml, 24, 48, 72 hours, FIG. 8A and 8B
Procedure: As osteoclasts are activated, they RELEASE MMP-9 (metalloproteinases 9) to erode collagen in bones. Using RT-PCR to analyze the expression of mRNA of MMP-9, one can see if kinsenoside inhibits the bone resorption activity of osteoclasts.
As macrophages RAW 264.7 were incubated in culture plates containing 50 ng/ml of RANKL, 50 μM of kinsenoside was added thereto. After the macrophages RAW 264.7 were incubated for 24, 48, and 72 hours, mRNAs were extracted to analyze the expression of MMP-9 with RT-PCR. […] Thus, kinsenoside can inhibit the bone resorption of osteoclasts.

MC3T3-E1 cells [6] = experiment: Alkaline phosphatase activity of MC3T3-E1 cells; format: cell-based
Procedure: ALP (alkaline phosphatase) is a molecular indicator or molecular marker for the early stage of the activation of the precursor cells of osteoblasts, and according to the activity of ALP, the activation situation of the precursor cells of osteoblasts can observed. […] The MC3T3-E1 cells were incubated for 3, 5, and 10 days respectively, and then proteins in the cells were extracted. A p-nitrophenyl phosphate liquid substrate system reagent (Sigma) was used to determine the activity of ALP, and the result is shown in Table 13.

macrophages RAW 264.7 = conditions: mouse, 3 days
Procedure: After 3 days, the survival rate of the macrophages RAW 264.7 was measured with MTS (3-(4,5-di-methylthiazol-2-yl)-5-(3-carboxymethoxyphenyl)-2-(4-sulfophenyl)-2H-tetrazolium) (Promega, Madison, Wis., USA), and the result is shown in Table 10.
The mechanism of MTS is that a live cell has the activity of dehydrogenase, so MTS can be reduced to become a red purple soluble product, and the product has the highest absorbance at the wavelength of 490 nm. Therefore, the survival rate of cells can be determined according to the absorbance, and the survival rate of cells can be calculated with the following formula: Survival rate=the absorbance of the experimental group/the absorbance of the control group×100%

[7] = with Fulvestrant 1 nM, read-out: inhibition percentage Experimental Group II
[8] = without Fulvestrant, read-out: inhibition percentage Experimental Group I

**Q.** What does the source list for O=C1C[C@@H](OC2OC(CO)C(O)C(O)C2O)CO1 (stereo partly drawn) [kinsenoside, 3-(R)-3-β-D-glucopyranosyloxy-butanolide]?
**A.** survival rate Experimental Group VI (MC3T3-E1 cells [1]; 10 nM): 98.7 ± 7.8%; survival rate Experimental Group V (MC3T3-E1 cells [1]; 10 nM): 91.5 ± 3.0 %; survival rate Experimental Group VI (MC3T3-E1 cells [1]; 100 nM): 95.3 ± 3.3%; survival rate Experimental Group V (MC3T3-E1 cells [1]; 100 nM): 90.8 ± 2.9 %; survival rate Experimental Group VI (MC3T3-E1 cells [1]; 1000 nM): 95.0 ± 4.5%; survival rate Experimental Group V (MC3T3-E1 cells [1]; 1000 nM): 89.5 ± 6.0 %; NO concentration ([2]; kinsenoside 10 μM): 26.7 ± 3.2 µM; NO concentration ([2]; kinsenoside 25 μM): 20.2 ± 2.1 µM; NO concentration ([2]; kinsenoside 50 μM): 16.2 ± 1.0 µM; Alizarin red-S (MC3T3-E1 cells [3]; 10 nM): 137 ± 29%; Alizarin red-S (MC3T3-E1 cells [3]; 100 nM): 137 ± 27%; Alizarin red-S (MC3T3-E1 cells [3]; 1000 nM): 174 ± 42 %; effect of Fulvestrant on the inhibition of osteoclast formation (myelocytes of rats; Fulvestrant 1 nM, summary of Table 9): no inhibition effect; inhibition at 5 µM (myelocytes of rats; [7]): 12 ± 7.5%; inhibition at 5 µM (myelocytes of rats; [8]): 15.3 ± 7.2%; inhibition at 25 µM (myelocytes of rats; [7]): 16.3 ± 6.7%; inhibition at 25 µM (myelocytes of rats; [8]): 25 ± 2%; inhibition at 50 µM (myelocytes of rats; [7]): 65.7 ± 3.8%; inhibition at 50 µM (myelocytes of rats; [8]): 50.3 ± 4.2%; inhibition at 100 µM (myelocytes of rats; [7]): 76 ± 3.6%; inhibition at 100 µM (myelocytes of rats; [8]): 78.1 ± 2.8%; expression of nitric oxide synthase ([4]; FIG. 2A and 2B): reduce the expression of nitric oxide synthase; p50 and p65 entering into the nuclei ([4]; FIG. 3A to 3C): this effect can be inhibited by kinsenoside; expression of mRNA of MMP-9 [5]: inhibits the expression of mRNA of MMP-9; ALP activity (MC3T3-E1 cells [6]; 10 nM, 3 days): 112 ± 11%; ALP activity (MC3T3-E1 cells [6]; 10 nM, 5 days): 120 ± 18%; ALP activity (MC3T3-E1 cells [6]; 10 nM, 10 days): 125 ± 6%; ALP activity (MC3T3-E1 cells [6]; 100 nM, 3 days): 124 ± 17%; ALP activity (MC3T3-E1 cells [6]; 100 nM, 5 days): 126 ± 17%; ALP activity (MC3T3-E1 cells [6]; 100 nM, 10 days): 137 ± 16%; ALP activity (MC3T3-E1 cells [6]; 1000 nM, 3 days): 130 ± 21%; ALP activity (MC3T3-E1 cells [6]; 1000 nM, 5 days): 132 ± 16 %; ALP activity (MC3T3-E1 cells [6]; 1000 nM, 10 days): 150 ± 23 %; survival rate Experimental Group III (macrophages RAW 264.7; 10 μM): 117.5 ± 8.0%; survival rate Experimental Group IV (macrophages RAW 264.7; 10 μM): 100.3 ± 4.0%; survival rate Experimental Group III (macrophages RAW 264.7; 25 μM): 139.9 ± 4.9%; survival rate Experimental Group IV (macrophages RAW 264.7; 25 μM): 105.0 ± 2.4%; survival rate Experimental Group III (macrophages RAW 264.7; 50 μM): 136.9 ± 4.8%; survival rate Experimental Group IV (macrophages RAW 264.7; 50 μM): 101.0 ± 0.3%
